Assay results taken from PMC4809600, “The Influence of Chronic Wound Extracts on Inflammatory Cytokine and Histatin Stability” (PLoS ONE, 2016).
Read-outs that look alike come from different tables or passages of the source. Where no end group is shown, it is not given here.

What was measured:
[1] = Stability in CWE with protease inhibitor cocktail (PIC), capillary zone electrophoresis; assay type: in vitro ADME, human; details: 37°C, CZE, 0 h = 100%
Description: Debridement tissue was obtained from chronic ulcers of 15 patients with therapy resistant (arterio-venous) leg ulcers, according to procedures described earlier. In brief, moist, easily removable debridement material, essentially blood free, was collected from the ulcer surface and divided equally into two different solutions: (i) PBS (B. Braun, Melsungen, Germany), (ii) PBS with protease inhibitor cocktail (PIC) (1:100; v/v) (Sigma-Aldrich, Steinheim, Germany). The mixtures were gently shaken for 1 h at 4°C to elute proteins and centrifuged; the supernatants were stored at -80°C. Total protein content of the supernatant was measured using the BioRad Protein Assay (BioRad Laboratories, Hercules, California, USA) essentially as described by the supplier. Samples were diluted to 1 mg/ml protein and extracts of five different donors were pooled; three different pools of five donors were used in all experiments. The samples are referred to as chronic wound extracts (CWE).
To determine the stability of the different peptides in CWE, histatins and cytokines were dissolved in PBS at 1 mg/ml. Histatins and cytokines were incubated in a 1:1 ratio with (i) PBS, (ii) CWE in PBS, or (iii) CWE in PBS containing PIC, in a total volume of 25 μl. Imidazole (Sigma-Aldrich) was added as an internal standard, with a final concentration of 100 μg/ml. The mixtures were incubated at 37°C, and samples were taken at 0, 24, 48, 72 and 96 h. For histatins containing mixtures, additional samples were taken after 2, 4, 8 and 16 h of incubation.
(§1) The samples were analyzed with a BioFocus 2000 capillary zone electrophoresis system (Bio-Rad Laboratories, Hercules, CA, USA) equipped with an uncoated fused-silica capillary of internal diameter 50 μm and a length of 24 cm. Samples were loaded by pressure injection (5 psi/sec). Separation was performed at 10 kV (cathode at the detector side) at 20°C using 0.1 M phosphate buffer (pH 2.5) as electrolyte and monitored continuously at 200 nm. Peaks were quantified with the BioFocus Integrator software. In order to quantify the percentage of intact peptides remaining after incubation with CWE, the ratios of histatins, rhIL-6 or rhCXCL8 to internal standard was set at 100% at 0h, and the ratios at the other incubation time points were related to this.

[2] = Dose response of Hst1 and PIC in the presence of CWE; assay type: in vitro ADME, human; details: CWE 1 mg/ml, 37°C, CZE, 0 h = 100%
Description: For the dose response of PIC and Hst1, three different concentrations of Hst1 were prepared (0.5 mg/ml, 1 mg/ml and 2 mg/ml) and two different concentrations of PIC were used. The final PIC concentration in the CWE (1 mg/ml) sample was 1:140 v/v (same as above) or 1:280 v/v (2x diluted). Mixtures were incubated at 37°C and samples were taken at 0, 24 and 96 h.
as §1

[3] = 1 mg/ml in PBS mixed 1:1 with CWE (1 mg/ml protein, pool of 5 donors) in PBS containing PIC (final 1:140 v/v), ratio to imidazole, experiment 1 of 3
[4] = 1 mg/ml in PBS mixed 1:1 with CWE (1 mg/ml protein, pool of 5 donors) in PBS containing PIC (final 1:140 v/v), ratio to imidazole, experiment 2 of 3
[5] = 1 mg/ml in PBS mixed 1:1 with CWE (1 mg/ml protein, pool of 5 donors) in PBS containing PIC (final 1:140 v/v), ratio to imidazole, experiment 3 of 3

Percentage intact, CWE + PIC 48h ([1]; 1 mg/ml in PBS mixed 1:1 with CWE (1 mg/ml protein, pool of 5 donors) in PBS containing PIC (final 1:140 v/v), 48 h, ratio to imidazole, experiment 3 of 3): 54.0682% | Percentage intact, CWE + PIC 72h [1, 3]: 64.2173% | Percentage intact, CWE + PIC 72h [1, 4]: 41.8342% | Percentage intact, CWE + PIC 72h [1, 5]: 36.0529% | Percentage intact, CWE + PIC 96h [1, 3]: 48.0273% | Percentage intact, CWE + PIC 96h [1, 4]: 30% | Percentage intact, CWE + PIC 96h [1, 5]: 21.2156% | remaining at 24 h, 0.5 mg/ml ([1]; human, with protease inhibitor cocktail (PIC), CWE with protease inhibitor cocktail (final 1:140 v/v), 24 h, mean of 3 independent experiments, read-out: Remaining fraction of intact peptide after 24 h in CWE + PIC): 72% | Intact Hst1, CWE + PIC 1:140 24h ([2]; Hst1 0.5 mg/ml, PIC:CWE 1:140 v/v, 24 h, experiment 1 of 3): 73.4639% | Intact Hst1, CWE + PIC 1:140 24h ([2]; Hst1 0.5 mg/ml, PIC:CWE 1:140 v/v, 24 h, experiment 2 of 3): 69.7277% | Intact Hst1, CWE + PIC 1:140 24h ([2]; Hst1 0.5 mg/ml, PIC:CWE 1:140 v/v, 24 h, experiment 3 of 3): 63.6084% | Intact Hst1, CWE + PIC 1:140 96h ([2]; Hst1 0.5 mg/ml, PIC:CWE 1:140 v/v, experiment 1 of 3): 54.3382% | Intact Hst1, CWE + PIC 1:140 96h ([2]; Hst1 0.5 mg/ml, PIC:CWE 1:140 v/v, experiment 2 of 3): 46.1353% | Intact Hst1, CWE + PIC 1:280 24h ([2]; Hst1 0.5 mg/ml, PIC:CWE 1:280 v/v, 24 h, experiment 1 of 3): 49.1645% | Intact Hst1, CWE + PIC 1:280 24h ([2]; Hst1 0.5 mg/ml, PIC:CWE 1:280 v/v, 24 h, experiment 2 of 3): 30.5445% | Intact Hst1, CWE + PIC 1:280 96h ([2]; Hst1 0.5 mg/ml, PIC:CWE 1:280 v/v, experiment 1 of 3): 24.1883% | Intact Hst1, CWE + PIC 1:280 96h ([2]; Hst1 0.5 mg/ml, PIC:CWE 1:280 v/v, experiment 2 of 3): 18.189% | Intact Hst1, CWE + PIC 1:140 24h ([2]; Hst1 1 mg/ml, PIC:CWE 1:140 v/v, 24 h, experiment 3 of 3): 58.7589% | Intact Hst1, CWE + PIC 1:140 96h ([2]; Hst1 1 mg/ml, PIC:CWE 1:140 v/v, experiment 3 of 3): 38.9986% | Intact Hst1, CWE + PIC 1:280 24h ([2]; Hst1 1 mg/ml, PIC:CWE 1:280 v/v, 24 h, experiment 3 of 3): 38.2658% | Intact Hst1, CWE + PIC 1:280 96h ([2]; Hst1 1 mg/ml, PIC:CWE 1:280 v/v, experiment 3 of 3): 25.9997% | Intact Hst1, CWE + PIC 1:140 24h ([2]; Hst1 2 mg/ml, PIC:CWE 1:140 v/v, 24 h, experiment 1 of 3): 77.6287% | Intact Hst1, CWE + PIC 1:140 24h ([2]; Hst1 2 mg/ml, PIC:CWE 1:140 v/v, 24 h, experiment 2 of 3): 76.5019% | Intact Hst1, CWE + PIC 1:140 24h ([2]; Hst1 2 mg/ml, PIC:CWE 1:140 v/v, 24 h, experiment 3 of 3): 68.9738% | Intact Hst1, CWE + PIC 1:140 96h ([2]; Hst1 2 mg/ml, PIC:CWE 1:140 v/v, experiment 1 of 3): 61.2993% | Intact Hst1, CWE + PIC 1:140 96h ([2]; Hst1 2 mg/ml, PIC:CWE 1:140 v/v, experiment 2 of 3): 47.6383% | Intact Hst1, CWE + PIC 1:140 96h ([2]; Hst1 2 mg/ml, PIC:CWE 1:140 v/v, experiment 3 of 3): 45.7764% | Intact Hst1, CWE + PIC 1:280 24h ([2]; Hst1 2 mg/ml, PIC:CWE 1:280 v/v, 24 h, experiment 1 of 3): 61.8953% | Intact Hst1, CWE + PIC 1:280 24h ([2]; Hst1 2 mg/ml, PIC:CWE 1:280 v/v, 24 h, experiment 2 of 3): 55.6946% | Intact Hst1, CWE + PIC 1:280 24h ([2]; Hst1 2 mg/ml, PIC:CWE 1:280 v/v, 24 h, experiment 3 of 3): 47.0948% | Intact Hst1, CWE + PIC 1:280 96h ([2]; Hst1 2 mg/ml, PIC:CWE 1:280 v/v, experiment 1 of 3): 42.3498% | Intact Hst1, CWE + PIC 1:280 96h ([2]; Hst1 2 mg/ml, PIC:CWE 1:280 v/v, experiment 2 of 3): 34.4262% | Intact Hst1, CWE + PIC 1:280 96h ([2]; Hst1 2 mg/ml, PIC:CWE 1:280 v/v, experiment 3 of 3): 43.3131% | remaining at 96 h, 0.5 mg/ml ([2]; human, chronic wound extracts (CWE), with protease inhibitor cocktail (PIC), PIC:CWE 1:140 v/v, Hst1 0.5 mg/ml, PIC:CWE 1:140 v/v, experiment 3 of 3, read-out: Intact Hst1, CWE + PIC 1:140 96h): 37.5% | remaining at 24 h, 1 mg/ml ([2]; human, chronic wound extracts (CWE), with protease inhibitor cocktail (PIC), PIC:CWE 1:140 v/v, Hst1 1 mg/ml, PIC:CWE 1:140 v/v, 24 h, experiment 1 of 3, read-out: Intact Hst1, CWE + PIC 1:140 24h): 76.2% | remaining at 24 h, 1 mg/ml ([2]; human, chronic wound extracts (CWE), with protease inhibitor cocktail (PIC), PIC:CWE 1:140 v/v, Hst1 1 mg/ml, PIC:CWE 1:140 v/v, 24 h, experiment 2 of 3, read-out: Intact Hst1, CWE + PIC 1:140 24h): 67% | remaining at 96 h, 1 mg/ml ([2]; human, chronic wound extracts (CWE), with protease inhibitor cocktail (PIC), PIC:CWE 1:140 v/v, Hst1 1 mg/ml, PIC:CWE 1:140 v/v, experiment 1 of 3, read-out: Intact Hst1, CWE + PIC 1:140 96h): 53.2% | remaining at 96 h, 1 mg/ml ([2]; human, chronic wound extracts (CWE), with protease inhibitor cocktail (PIC), PIC:CWE 1:140 v/v, Hst1 1 mg/ml, PIC:CWE 1:140 v/v, experiment 2 of 3, read-out: Intact Hst1, CWE + PIC 1:140 96h): 43.5% | remaining at 24 h, 0.5 mg/ml ([2]; human, chronic wound extracts (CWE), with protease inhibitor cocktail (PIC), PIC:CWE 1:280 v/v, Hst1 0.5 mg/ml, PIC:CWE 1:280 v/v, 24 h, experiment 3 of 3, read-out: Intact Hst1, CWE + PIC 1:280 24h): 34.4% | remaining at 96 h, 0.5 mg/ml ([2]; human, chronic wound extracts (CWE), with protease inhibitor cocktail (PIC), PIC:CWE 1:280 v/v, Hst1 0.5 mg/ml, PIC:CWE 1:280 v/v, experiment 3 of 3, read-out: Intact Hst1, CWE + PIC 1:280 96h): 20.3% | remaining at 24 h, 1 mg/ml ([2]; human, chronic wound extracts (CWE), with protease inhibitor cocktail (PIC), PIC:CWE 1:280 v/v, Hst1 1 mg/ml, PIC:CWE 1:280 v/v, 24 h, experiment 1 of 3, read-out: Intact Hst1, CWE + PIC 1:280 24h): 60.2% | remaining at 24 h, 1 mg/ml ([2]; human, chronic wound extracts (CWE), with protease inhibitor cocktail (PIC), PIC:CWE 1:280 v/v, Hst1 1 mg/ml, PIC:CWE 1:280 v/v, 24 h, experiment 2 of 3, read-out: Intact Hst1, CWE + PIC 1:280 24h): 51.5% | remaining at 96 h, 1 mg/ml ([2]; human, chronic wound extracts (CWE), with protease inhibitor cocktail (PIC), PIC:CWE 1:280 v/v, Hst1 1 mg/ml, PIC:CWE 1:280 v/v, experiment 1 of 3, read-out: Intact Hst1, CWE + PIC 1:280 96h): 37% | remaining at 96 h, 1 mg/ml ([2]; human, chronic wound extracts (CWE), with protease inhibitor cocktail (PIC), PIC:CWE 1:280 v/v, Hst1 1 mg/ml, PIC:CWE 1:280 v/v, experiment 2 of 3, read-out: Intact Hst1, CWE + PIC 1:280 96h): 41.5%
Sequence: DSHEKRHHGYRRKFHEKHHSHREFPFYGDYGSNYLYDN [Hst1]
